Source: US7339063B2, “Quinolyl organic germanium ester and the synthesis method thereof” (Changchun Institute of Applied Chemistry Chinese Academy of …, priority 2004, dated 2008)
pIC50: −log10 of the molar value. Like-named read-outs stand apart in the source and are kept apart here. Marks after values point to notes of the source that are not given here.

Tested on: PC-3M prostate cancer cell line
Settings: for inhibition fraction at the given concentration: PC-3M proliferation
Source text: Cytotoxicity of Quinolyl Germanyl Propionate Sesquioxide (a) and Quinolyl Germanyl-α-methyl Propionate Sesquioxide (b) Against PC-3M Prostate Cancer Cell Line
The only difference of these two compounds is with or without the methyl group in the linking chain of the Germanium and quinoline.

Quinolyl Germanyl Propionate Sesquioxide [Compound (a)]
inhibition fraction at the given concentration (10 μM, 24 h): 0.34** | inhibition fraction at the given concentration (10 μM, 48 h): 0.69 | inhibition fraction at the given concentration (10 μM, 72 h): 0.62 | inhibition fraction at the given concentration (30 μM, 24 h): 0.48 | inhibition fraction at the given concentration (30 μM, 48 h): 0.74 | inhibition fraction at the given concentration (30 μM, 72 h): 0.74 | inhibition fraction at the given concentration (60 μM, 24 h): 0.50 | inhibition fraction at the given concentration (60 μM, 48 h): 0.74 | inhibition fraction at the given concentration (60 μM, 72 h): 0.78 | IC50 relative to that of Compound (b) (PC-3M, MTT method): three fold lower | pIC50 (PC-3M, measured by MTT method): 5.00

Quinolyl Germanyl-α-methyl Propionate Sesquioxide [Compound (b)]
inhibition fraction at the given concentration (10 μM, 24 h): 0.09 | inhibition fraction at the given concentration (10 μM, 48 h): 0.32 | inhibition fraction at the given concentration (10 μM, 72 h): 0.58 | inhibition fraction at the given concentration (30 μM, 24 h): 0.30 | inhibition fraction at the given concentration (30 μM, 48 h): 0.45 | inhibition fraction at the given concentration (30 μM, 72 h): 0.69 | inhibition fraction at the given concentration (60 μM, 24 h): 0.20 | inhibition fraction at the given concentration (60 μM, 48 h): 0.43 | inhibition fraction at the given concentration (60 μM, 72 h): 0.67
